Where “and” joins values, the source holds several entries; their conditions need not be identical. Identical values can stand only once. Inconclusive results and toxic doses are left out. No stated cut-off is given here; in the data, active means T/C of 150% or more; inactive means T/C below 125%.
System: L1210 leukemia ip in BDF1 mice, survival T/C
Experiment: NCI In Vivo Anticancer Drug Screen. Data for tumor model L1210 Leukemia (intraperitoneal) in B6D2F1 (BDF1) mice
Settings: endpoint: mean survival time, higher = longer survival
Procedure, shortened: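 Antitumor effect is assessed in tumor-bearing animals. Survival in the compound arm is compared with a vehicle-dosed control arm and expressed as their quotient.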

[1] = dose: 100.0 mg/kg/injection, schedule: Q01DX001 (ip), vehicle: other
[2] = dose: 100.0 mg/kg/injection, schedule: Q04DX002 (ip), vehicle: Klucel (hydroxypropylcellulose) (HPC)
[3] = dose: 200.0 mg/kg/injection, schedule: Q01DX001 (ip), vehicle: other
[4] = dose: 200.0 mg/kg/injection, schedule: Q04DX002 (ip), vehicle: Klucel (hydroxypropylcellulose) (HPC)
[5] = dose: 100.0 mg/kg/injection, schedule: Q04DX003 (ip), vehicle: saline
[6] = dose: 200.0 mg/kg/injection, schedule: Q04DX003 (ip), vehicle: saline
[7] = dose: 100.0 mg/kg/injection, schedule: Q01DX001 (ip), vehicle: Klucel (hydroxypropylcellulose) (HPC)
[8] = dose: 100.0 mg/kg/injection, schedule: Q01DX009 (ip), vehicle: Klucel (hydroxypropylcellulose) (HPC)
[9] = dose: 200.0 mg/kg/injection, schedule: Q01DX001 (ip), vehicle: Klucel (hydroxypropylcellulose) (HPC)
[10] = dose: 200.0 mg/kg/injection, schedule: Q01DX009 (ip), vehicle: Klucel (hydroxypropylcellulose) (HPC)
[11] = dose: 400.0 mg/kg/injection, schedule: Q01DX009 (ip), vehicle: Klucel (hydroxypropylcellulose) (HPC)
[12] = dose: 75.0 mg/kg/injection, schedule: Q01DX001 (ip), vehicle: saline
[13] = dose: 150.0 mg/kg/injection, schedule: Q01DX001 (ip), vehicle: saline
[14] = dose: 300.0 mg/kg/injection, schedule: Q01DX001 (ip), vehicle: saline
[15] = dose: 100.0 mg/kg/injection, schedule: Q01DX001 (ip), vehicle: saline
[16] = dose: 200.0 mg/kg/injection, schedule: Q01DX001 (ip), vehicle: saline
[17] = dose: 400.0 mg/kg/injection, schedule: Q01DX001 (ip), vehicle: saline
[18] = dose: 100.0 mg/kg/injection, schedule: Q01DX009 (ip), vehicle: saline with Tween-80

Measured: T/C

CCCNC(=O)Oc1c(C)cccc1C
inactive: dose: 50.0 mg/kg/injection, schedule: Q01DX009 (ip), vehicle: carboxymethylcellulose (CMC) 105 % of control and 107 % of control | [1] 95 % of control | dose: 100.0 mg/kg/injection, schedule: Q01DX009 (ip), vehicle: carboxymethylcellulose (CMC) 96 % of control | [2] 92 % of control | dose: 100.0 mg/kg/injection, schedule: Q04DX002 (ip), vehicle: carboxymethylcellulose (CMC) 103 % of control and 104 % of control | dose: 100.0 mg/kg/injection, schedule: Q04DX003 (ip), vehicle: other 103 % of control | [3] 96 % of control | dose: 200.0 mg/kg/injection, schedule: Q01DX009 (ip), vehicle: carboxymethylcellulose (CMC) 103 % of control | [4] 103 % of control | dose: 200.0 mg/kg/injection, schedule: Q04DX002 (ip), vehicle: carboxymethylcellulose (CMC) 97 % of control and 88 % of control | dose: 200.0 mg/kg/injection, schedule: Q04DX003 (ip), vehicle: other 104 % of control | dose: 400.0 mg/kg/injection, schedule: Q01DX001 (ip), vehicle: other 102 % of control | dose: 400.0 mg/kg/injection, schedule: Q04DX003 (ip), vehicle: other 109 % of control

COc1cccc(/C=C/[N+](=O)[O-])c1OC
inactive: dose: 17.5 mg/kg/injection, schedule: Q01DX009 (ip), vehicle: saline with Tween-80 90 % of control | dose: 35.0 mg/kg/injection, schedule: Q01DX009 (ip), vehicle: saline with Tween-80 101 % of control | dose: 50.0 mg/kg/injection, schedule: Q01DX001 (ip), vehicle: other 103 % of control | dose: 50.0 mg/kg/injection, schedule: Q01DX009 (ip), vehicle: saline 107 % of control | dose: 70.0 mg/kg/injection, schedule: Q01DX009 (ip), vehicle: saline with Tween-80 95 % of control | [1] 97 % of control | [5] 108 % of control | [3] 103 % of control | [6] 100 % of control

O=C(Nc1ccccc1F)OCCOc1ccccc1
inactive: [7] 97 % of control | [8] 95 % of control and 97 % of control | [2] 98 % of control and 115 % of control | [9] 97 % of control | [10] 95 % of control and 102 % of control | [4] 106 % of control and 115 % of control | dose: 400.0 mg/kg/injection, schedule: Q01DX001 (ip), vehicle: Klucel (hydroxypropylcellulose) (HPC) 94 % of control | [11] 95 % of control and 103 % of control | dose: 400.0 mg/kg/injection, schedule: Q04DX002 (ip), vehicle: Klucel (hydroxypropylcellulose) (HPC) 100 % of control and 103 % of control

NC(=S)NNC(N)=S
inactive: dose: 50.0 mg/kg/injection, schedule: Q01DX001 (ip), vehicle: Klucel (hydroxypropylcellulose) (HPC) 90 % of control | [7] 97 % of control | [9] 100 % of control

CC1=NC(C)CNC(C)(C)CC(C)=NC(C)CNC(C)(C)C1 (configuration not stated)
inactive: dose: 25.0 mg/kg/injection, schedule: Q04DX002 (ip), vehicle: Klucel (hydroxypropylcellulose) (HPC) 88 % of control | dose: 50.0 mg/kg/injection, schedule: Q04DX002 (ip), vehicle: Klucel (hydroxypropylcellulose) (HPC) 94 % of control | [2] 112 % of control

COc1ccc(Cl)cc1NC(=O)N1CCN(c2ccccc2)CC1
inactive: [8] 120 % of control | [5] 101 % of control | [10] 97 % of control | [6] 101 % of control | [11] 111 % of control | dose: 400.0 mg/kg/injection, schedule: Q04DX003 (ip), vehicle: saline 97 % of control

CS(=O)(=O)c1nnc(-c2ccc(Cl)c(Cl)c2)s1
inactive: [12] 101 % of control | dose: 75.0 mg/kg/injection, schedule: Q04DX003 (ip), vehicle: saline 110 % of control | [13] 100 % of control | dose: 150.0 mg/kg/injection, schedule: Q04DX003 (ip), vehicle: saline 95 % of control | [14] 110 % of control

CCCCCCCCCCCCCCCCCC[N+](C)(C)c1nc(Cl)nc(Cl)n1
inactive: dose: 13.0 mg/kg/injection, schedule: Q01DX015 (ip), vehicle: carboxymethylcellulose (CMC) 98 % of control | dose: 25.0 mg/kg/injection, schedule: Q01DX015 (ip), vehicle: carboxymethylcellulose (CMC) 92 % of control | dose: 37.5 mg/kg/injection, schedule: Q04DX003 (ip), vehicle: Klucel (hydroxypropylcellulose) (HPC) 103 % of control | dose: 50.0 mg/kg/injection, schedule: Q01DX015 (ip), vehicle: carboxymethylcellulose (CMC) 93 % of control | dose: 75.0 mg/kg/injection, schedule: Q04DX003 (ip), vehicle: Klucel (hydroxypropylcellulose) (HPC) 97 % of control | dose: 100.0 mg/kg/injection, schedule: Q01DX001 (ip), vehicle: carboxymethylcellulose (CMC) 92 % of control | dose: 100.0 mg/kg/injection, schedule: Q01DX015 (ip), vehicle: carboxymethylcellulose (CMC) 93 % of control | dose: 200.0 mg/kg/injection, schedule: Q01DX001 (ip), vehicle: carboxymethylcellulose (CMC) 97 % of control

O=C(Nc1ccc(Cl)c(Cl)c1)NC(CO)(CO)CO
inactive: [15] 100 % of control | [16] 94 % of control | [17] 94 % of control

Cc1cc(C)c(C(=O)O)c(C)c1
inactive: [15] 100 % of control | [18] 93 % of control | [16] 96 % of control | dose: 200.0 mg/kg/injection, schedule: Q01DX009 (ip), vehicle: saline with Tween-80 94 % of control | [17] 96 % of control | dose: 400.0 mg/kg/injection, schedule: Q01DX009 (ip), vehicle: saline with Tween-80 94 % of control

CCCCCCCCCCCCCCCCS(=O)(=O)c1ccc(S(=O)(=O)N/N=c2/sc3ccc(S(=O)(=O)O)cc3n2C)cc1C(=O)O
inactive: dose: 50.0 mg/kg/injection, schedule: Q01DX009 (ip), vehicle: saline with Tween-80 97 % of control | [18] 94 % of control

O=C1C(=O)c2ccccc2C(O)=C1C(C1=C(O)c2ccccc2C(=O)C1=O)c1ccc(Cl)cc1
inactive: [12] 86 % of control | [13] 86 % of control | [14] 86 % of control

CCOC(=O)c1cnc(SC)nc1N(C)c1ccccc1
inactive: dose: 44.0 mg/kg/injection, schedule: Q04DX003 (ip), vehicle: Klucel (hydroxypropylcellulose) (HPC) 98 % of control | dose: 66.0 mg/kg/injection, schedule: Q04DX003 (ip), vehicle: Klucel (hydroxypropylcellulose) (HPC) 99 % of control | dose: 67.0 mg/kg/injection, schedule: Q04DX003 (ip), vehicle: Klucel (hydroxypropylcellulose) (HPC) 95 % of control | dose: 100.0 mg/kg/injection, schedule: Q04DX003 (ip), vehicle: Klucel (hydroxypropylcellulose) (HPC) 98 % of control and 101 % of control | dose: 150.0 mg/kg/injection, schedule: Q04DX003 (ip), vehicle: Klucel (hydroxypropylcellulose) (HPC) 95 % of control and 97 % of control

Cc1cccc(C)c1N(N=O)C(=O)c1ccccc1
inactive: [12] 98 % of control | [13] 98 % of control
